Like-named read-outs stand apart in the source and are kept apart here.
Legend:
urease [1] = target: T1, urease (Canavalia ensiformis, UniProt P07374); assay: biochemical; assay type: biochemical
Description: The inhibitory potential of the compounds was assessed using a slightly modified indophenol method ([Hina et al., 2023]). In 96-well plates, a mixture consisting of 50 µL urease, 30 µL buffer solution (phosphate buffer, sodium salicylate, sodium nitroprusside, and EDTA, pH 8.0), 10 µL urea substrate (100 mM), and 10 µL of the test compound (1 mM) was subjected to pre-incubation for 10 min at room temperature. Subsequently, an alkali reagent (70 µL) was promptly introduced into each well. Then, 30 min later, the absorbance at 630 nm for all samples was measured using a BioTek ELx800 instrument from BioTek Instruments, Inc., United States. The data were collected for all experiments performed in triplicate, and the percentage of inhibitory activities was assessed utilizing the following formula: Percentage of inhibition=100 – Absorbance of compound/Absorbance of control × 100.

urease [2] = target: T1, urease; assay: Kinetic study (Lineweaver–Burk / Michaelis–Menten) of urease inhibition; assay type: biochemical; conditions: Lineweaver–Burk plots; 5j at 0, 2.55, 5.11, 7.65 μM
Description: By using Lineweaver–Burk graphs, we determined the mechanism of action of the leading compound 5j against urease. We evaluated the effect of the inhibitor on K m and V max using reciprocal 1/S and 1/V of the product concentration and calculated the inhibition type. The slope K m /V max of each line was schemed against different concentrations of the substrate and inhibitor. In kinetic studies of the potent compound, different concentrations of the compound and substrate were used. Different concentrations of 1 mM 5j were 0, 2.55, 5.11, and 7.65 μM, and different concentrations of the substrate were 0, 25, 50, 100, and 150 mM.
The type of inhibitory action was determined by using […] different concentrations of the substrate (0, 2.5, 5, 10, and 15 mM) in the absence and presence of different concentrations of inhibitor 5j (0, 2.55, 5.11, and 7.65 μM).

urease [3] = target: T1, urease; conditions: read-out: IC50 (urease); Figure 1; ref Khan et al., 2024; cited from earlier work

T1 sequence (P07374 whole entry, looked up): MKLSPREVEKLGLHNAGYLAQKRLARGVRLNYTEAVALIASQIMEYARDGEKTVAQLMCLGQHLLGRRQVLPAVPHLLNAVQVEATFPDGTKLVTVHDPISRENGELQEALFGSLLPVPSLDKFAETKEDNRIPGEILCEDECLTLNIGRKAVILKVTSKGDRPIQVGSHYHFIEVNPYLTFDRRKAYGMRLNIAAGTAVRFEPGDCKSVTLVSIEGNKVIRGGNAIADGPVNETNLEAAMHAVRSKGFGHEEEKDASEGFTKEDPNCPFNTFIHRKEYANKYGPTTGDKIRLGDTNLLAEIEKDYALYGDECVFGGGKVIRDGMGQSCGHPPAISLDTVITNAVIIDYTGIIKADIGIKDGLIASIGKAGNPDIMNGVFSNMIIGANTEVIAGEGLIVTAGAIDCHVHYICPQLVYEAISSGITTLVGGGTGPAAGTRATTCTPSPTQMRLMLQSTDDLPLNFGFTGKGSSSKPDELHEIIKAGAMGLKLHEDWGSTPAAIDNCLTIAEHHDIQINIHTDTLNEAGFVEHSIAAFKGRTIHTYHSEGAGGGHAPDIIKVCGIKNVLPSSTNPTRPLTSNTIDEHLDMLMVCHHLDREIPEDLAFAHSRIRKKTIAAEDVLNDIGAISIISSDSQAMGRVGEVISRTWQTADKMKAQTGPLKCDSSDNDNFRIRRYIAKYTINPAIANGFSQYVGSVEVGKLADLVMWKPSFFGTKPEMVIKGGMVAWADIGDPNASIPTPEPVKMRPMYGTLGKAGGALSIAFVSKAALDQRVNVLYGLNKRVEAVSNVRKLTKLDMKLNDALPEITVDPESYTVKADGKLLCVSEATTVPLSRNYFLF

Compound	IC50 (urease [1]) [µM]	melting point [°C]	IC50 (urease [1]; indophenol method, urea substrate 100 mM, pH 8.0, triplicate, read-out: Urease inhibition: IC50 ± SEM) [µM]	type of inhibition against urease (urease [2])	IC50 (urease [3]) [nM]
COc1ccccc1NC(=O)CSC(=S)N1CCN(c2ncccc2[N+](=O)[O-])CC1 [Compound 5m, 2-((2-Methoxyphenyl)amino)-2-oxoethyl 4-(3-nitropyridin-2-yl)piperazine-1-carbodithioate]	8.17 ± 0.37	–	–	–	–
Cc1cccc(NC(=O)CSC(=S)N2CCN(c3ncccc3[N+](=O)[O-])CC2)c1 [Compound 5k, 2-Oxo-2-(m-tolylamino)ethyl 4-(3-nitropyridin-2-yl)piperazine-1-carbodithioate]	18.3 ± 0.17	101 to 103	–	–	–
O=C(CSC(=S)N1CCN(c2ncccc2[N+](=O)[O-])CC1)Nc1ccc([N+](=O)[O-])cc1 [Compound 5i, 2-((4-Nitrophenyl)amino)-2-oxoethyl 4-(3-nitropyridin-2-yl)piperazine-1-carbodithioate]	45.41 ± 0.23	168 to 169	–	–	–
O=C(Nc1ccccc1)c1ccc(CSC(=S)N2CCN(c3ncccc3[N+](=O)[O-])CC2)cc1 [Compound 7a, 4-(Phenylcarbamoyl)benzyl 4-(3-nitropyridin-2-yl)piperazine-1-carbodithioate]	11.7 ± 0.26	142 to 143	–	–	–
O=C(Nc1ccc(Br)cc1)c1ccc(CSC(=S)N2CCN(c3ncccc3[N+](=O)[O-])CC2)cc1 [Compound 7f, 4-((4-Bromophenyl)carbamoyl)benzyl 4-(3-nitropyridin-2-yl)piperazine-1-carbodithioate]	16.8 ± 0.29	162 to 164	–	–	–
COc1ccc(NC(=O)c2ccc(CSC(=S)N3CCN(c4ncccc4[N+](=O)[O-])CC3)cc2)cc1 [Compound 7n, 4-((4-Methoxyphenyl)carbamoyl)benzyl 4-(3-nitropyridin-2-yl)piperazine-1-carbodithioate]	24 ± 0.27	187 to 189	–	–	–
COc1ccc(NC(=O)CSC(=S)N2CCN(c3ncccc3[N+](=O)[O-])CC2)cc1 [Compound 5n, 2-((4-Methoxyphenyl)amino)-2-oxoethyl 4-(3-nitropyridin-2-yl)piperazine-1-carbodithioate]	17.8 ± 0.29	151 to 153	–	–	–
O=C(CSC(=S)N1CCN(c2ncccc2[N+](=O)[O-])CC1)Nc1ccccc1Cl [Compound 5b, 2-((2-Chlorophenyl)amino)-2-oxoethyl 4-(3-nitropyridin-2-yl)piperazine-1-carbodithioate]	41.03 ± 0.23	114 to 116	–	–	–
O=C(CSC(=S)N1CCN(c2ncccc2[N+](=O)[O-])CC1)Nc1ccc(Cl)cc1 [Compound 5d, 2-((4-Chlorophenyl)amino)-2-oxoethyl 4-(3-nitropyridin-2-yl)piperazine-1-carbodithioate]	55.69 ± 0.2	143 to 144	–	–	–
O=C(CSC(=S)N1CCN(c2ncccc2[N+](=O)[O-])CC1)Nc1cccc(Br)c1 [Compound 5e, 2-((3-Bromophenyl)amino)-2-oxoethyl 4-(3-nitropyridin-2-yl)piperazine-1-carbodithioate]	32.53 ± 0.2	110 to 112	–	–	–
Cc1ccc(NC(=O)CSC(=S)N2CCN(c3ncccc3[N+](=O)[O-])CC2)cc1 [Compound 5l, 2-Oxo-2-(p-tolylamino)ethyl 4-(3-nitropyridin-2-yl)piperazine-1-carbodithioate]	10.6 ± 0.36	–	–	–	–
Cc1cccc(NC(=O)c2ccc(CSC(=S)N3CCN(c4ncccc4[N+](=O)[O-])CC3)cc2)c1 [Compound 7k, 4-(m-Tolylcarbamoyl)benzyl 4-(3-nitropyridin-2-yl)piperazine-1-carbodithioate]	10.7 ± 0.26	–	–	–	–
O=C(Nc1ccccc1Cl)c1ccc(CSC(=S)N2CCN(c3ncccc3[N+](=O)[O-])CC2)cc1 [Compound 7b, 4-((2-Chlorophenyl)carbamoyl)benzyl 4-(3-nitropyridin-2-yl)piperazine-1-carbodithioate]	32.53 ± 0.31	109 to 110	–	–	–
O=C(CSC(=S)N1CCN(c2ncccc2[N+](=O)[O-])CC1)Nc1ccc(Br)cc1 [Compound 5f, 2-((4-Bromophenyl)amino)-2-oxoethyl 4-(3-nitropyridin-2-yl)piperazine-1-carbodithioate]	21.3 ± 0.7	136 to 138	–	–	–
O=C(Nc1ccccc1[N+](=O)[O-])c1ccc(CSC(=S)N2CCN(c3ncccc3[N+](=O)[O-])CC2)cc1 [Compound 7g, 4-((2-Nitrophenyl)carbamoyl)benzyl 4-(3-nitropyridin-2-yl)piperazine-1-carbodithioate]	56.89 ± 0.31	133 to 134	–	–	–
O=C(Nc1cccc(Cl)c1)c1ccc(CSC(=S)N2CCN(c3ncccc3[N+](=O)[O-])CC2)cc1 [Compound 7c, 4-((3-Chlorophenyl)carbamoyl)benzyl 4-(3-nitropyridin-2-yl)piperazine-1-carbodithioate]	10.8 ± 0.52	140 to 141	–	–	–
O=C(Nc1cccc([N+](=O)[O-])c1)c1ccc(CSC(=S)N2CCN(c3ncccc3[N+](=O)[O-])CC2)cc1 [Compound 7h, 4-((3-Nitrophenyl)carbamoyl)benzyl 4-(3-nitropyridin-2-yl)piperazine-1-carbodithioate]	47.94 ± 0.25	165 to 166	–	–	–
NC(N)=S [Thiourea, thiourea, reference compound]	–	–	23 ± 0.03	–	–
O=C(Nc1ccc([N+](=O)[O-])cc1)c1ccc(CSC(=S)N2CCN(c3ncccc3[N+](=O)[O-])CC2)cc1 [Compound 7i, 4-((4-Nitrophenyl)carbamoyl)benzyl 4-(3-nitropyridin-2-yl)piperazine-1-carbodithioate]	10.5 ± 0.34	–	–	–	–
O=C(CSC(=S)N1CCN(c2ncccc2[N+](=O)[O-])CC1)Nc1ccccc1[N+](=O)[O-] [Compound 5g, 2-((2-Nitrophenyl)amino)-2-oxoethyl 4-(3-nitropyridin-2-yl)piperazine-1-carbodithioate]	16.84 ± 0.12	149 to 151	–	–	–
O=C(CSC(=S)N1CCN(c2ncccc2[N+](=O)[O-])CC1)Nc1cccc([N+](=O)[O-])c1 [Compound 5h, 2-((3-Nitrophenyl)amino)-2-oxoethyl 4-(3-nitropyridin-2-yl)piperazine-1-carbodithioate]	27 ± 2.15	174 to 175	–	–	–
O=C(Nc1cccc(Br)c1)c1ccc(CSC(=S)N2CCN(c3ncccc3[N+](=O)[O-])CC2)cc1 [Compound 7e, 4-((3-Bromophenyl)carbamoyl)benzyl 4-(3-nitropyridin-2-yl)piperazine-1-carbodithioate]	16.5 ± 0.28	141 to 142	–	–	–
Cc1ccc(NC(=O)c2ccc(CSC(=S)N3CCN(c4ncccc4[N+](=O)[O-])CC3)cc2)cc1 [Compound 7l, 4-(P-tolylcarbamoyl)benzyl 4-(3-nitropyridin-2-yl)piperazine-1-carbodithioate]	37.54 ± 0.26	158 to 160	–	–	–
COc1ccccc1NC(=O)c1ccc(CSC(=S)N2CCN(c3ncccc3[N+](=O)[O-])CC2)cc1 [Compound 7m, 4-((2-Methoxyphenyl)carbamoyl)benzyl 4-(3-nitropyridin-2-yl)piperazine-1-carbodithioate]	18.7 ± 0.27	166 to 167	–	–	–
O=C(CSC(=S)N1CCN(c2ncccc2[N+](=O)[O-])CC1)Nc1ccccc1 [Compound 5a, 2-Oxo-2-(phenylamino)ethyl 4-(3-nitropyridin-2-yl)piperazine-1-carbodithioate]	18.7 ± 0.52	119 to 120	–	–	–
Cc1ccccc1NC(=O)CSC(=S)N1CCN(c2ncccc2[N+](=O)[O-])CC1 [Compound 5j, 2-Oxo-2-(o-tolylamino)ethyl 4-(3-nitropyridin-2-yl)piperazine-1-carbodithioate]	5.16 ± 2.68	–	–	mixed type of inhibition	–
Cc1ccccc1NC(=O)c1ccc(CSC(=S)N2CCN(c3ncccc3[N+](=O)[O-])CC2)cc1 [Compound 7j, 4-(o-Tolylcarbamoyl)benzyl 4-(3-nitropyridin-2-yl)piperazine-1-carbodithioate]	12.3 ± 0.27	113 to 115	–	–	–
O=C(Nc1ccc(Cl)cc1)c1ccc(CSC(=S)N2CCN(c3ncccc3[N+](=O)[O-])CC2)cc1 [Compound 7d, 4-((4-Chlorophenyl)carbamoyl)benzyl 4-(3-nitropyridin-2-yl)piperazine-1-carbodithioate]	43.11 ± 0.31	147 to 148	–	–	–
CN(Cc1ccccc1)C(=S)SCc1ccccc1 [S-benzyl substituted carbodithioate]	–	–	–	–	750 ± 40
O=C(CSC(=S)N1CCN(c2ncccc2[N+](=O)[O-])CC1)Nc1cccc(Cl)c1 [Compound 5c, 2-((3-Chlorophenyl)amino)-2-oxoethyl 4-(3-nitropyridin-2-yl)piperazine-1-carbodithioate]	37.33 ± 0.19	121 to 122	–	–	–

From article PMC11333205, “Pyridylpiperazine-based carbodithioates as urease inhibitors: synthesis and biological evaluation” (Frontiers in Chemistry, 2024)
